The source made the active and inactive calls. The calls are words filed in the database; no cut-off is given here.
Legend:
[1] = Drug concentration in tumor of C57BL/6 mouse implanted with mouse B16-F10 cells at 50 mg/kg, ip measured after 4 hrs by UPLC-MS/MS analysis; format: ADME, organism-based, Neoplasm; conditions: read-out: Ct
[2] = AUC (0 to t) in C57BL/6 mouse at 50 mg/kg, ip measured after 4 hrs by HPLC-MS/MS analysis; format: ADME, organism-based; design: time 4 hrs, dose 50 mg/kg, route ip; conditions: in vivo
[3] = Drug concentration in spleen of C57BL/6 mouse implanted with mouse B16-F10 cells at 50 mg/kg, ip measured after 2 hrs by UPLC-MS/MS analysis; format: ADME, organism-based; conditions: read-out: Ct
[4] = Drug concentration in kidney of C57BL/6 mouse implanted with mouse B16-F10 cells at 50 mg/kg, ip measured after 1 hrs by UPLC-MS/MS analysis; format: ADME, organism-based; conditions: read-out: Ct
[5] = Drug concentration in heart of C57BL/6 mouse implanted with mouse B16-F10 cells at 50 mg/kg, ip measured after 2 hrs by UPLC-MS/MS analysis; format: ADME, organism-based; conditions: read-out: Ct
[6] = Clearance in Sprague-Dawley rat at 1 mg/kg, iv administered as single dose and measured after 48 hrs by HPLC-MS/MS analysis; format: ADME, organism-based; conditions: in vivo
[7] = Drug concentration in brain of C57BL/6 mouse implanted with mouse B16-F10 cells at 50 mg/kg, ip measured after 4 hrs by UPLC-MS/MS analysis; format: ADME, organism-based; conditions: read-out: Ct
[8] = Drug concentration in liver of C57BL/6 mouse implanted with mouse B16-F10 cells at 50 mg/kg, ip measured after 0.5 hrs by UPLC-MS/MS analysis; format: ADME, organism-based; conditions: read-out: Ct
[9] = Drug concentration in lung of C57BL/6 mouse implanted with mouse B16-F10 cells at 50 mg/kg, ip measured after 2 hrs by UPLC-MS/MS analysis; format: ADME, organism-based; conditions: read-out: Ct
[10] = Drug concentration in tumor of C57BL/6 mouse implanted with mouse B16-F10 cells at 50 mg/kg, ip measured after 1 hrs by UPLC-MS/MS analysis; format: ADME, organism-based, Neoplasm; conditions: read-out: Ct
[11] = Toxicity in syngeneic C57BL/6 mouse implanted with mouse B16-F10 cells assessed as effect on body weight at 50 mg/kg, ip measured after 12 days; format: organism-based; conditions: in vivo, 288 h, time 12 day
B16-F10 [12] = assay: Antitumor immunity against mouse B16-F10 cells implanted in allogenic BALB/c mouse assessed as increase in CD3+ CD4+ T cells percentage at 50 mg/kg, ip by flow cytometric analysis; format: functional, organism-based
[13] = Drug concentration in heart of C57BL/6 mouse implanted with mouse B16-F10 cells at 50 mg/kg, ip measured after 4 hrs by UPLC-MS/MS analysis; format: ADME, organism-based; conditions: read-out: Ct
[14] = Drug concentration in liver of C57BL/6 mouse implanted with mouse B16-F10 cells at 50 mg/kg, ip measured after 1 hrs by UPLC-MS/MS analysis; format: ADME, organism-based; conditions: read-out: Ct
[15] = Initial drug concentration in Sprague-Dawley rat at 1 mg/kg, iv administered as single dose and measured after 48 hrs by HPLC-MS/MS analysis; format: ADME, organism-based; conditions: in vivo
[16] = molecular target: Programmed cell death protein 1/Programmed cell death 1 ligand 1 (Homo sapiens) (UniProt Q15116+Q9NZQ7); assay: Inhibition of GST-tagged PD-1 (unknown origin)/His-tagged PD-L1 (unknown origin) interaction at 100 nM by HTRF binding assay relative to control; format: protein-complex assay
[17] = Tmax in C57BL/6 mouse at 50 mg/kg, ip measured after 4 hrs by HPLC-MS/MS analysis; format: ADME, organism-based; conditions: in vivo
[18] = molecular target: Programmed cell death protein 1/Programmed cell death 1 ligand 1 (Homo sapiens, UniProt Q9NZQ7); assay: Inhibition of interaction of PD-1 (unknown origin) expressed in Jurkat T cells carrying luciferase reporter under the control of NFAT promoter/PD-L1 (unknown origin) expressed in CHO cells co-expressing TCR ligand and T-cell surrogate pretreated with CHO cells for 0.5 hrs followed by Jurkat T cell addition and measured after 5 hrs by luminescence based analysis
Sequence of Programmed cell death protein 1/Programmed cell death 1 ligand 1 (Q15116 whole entry): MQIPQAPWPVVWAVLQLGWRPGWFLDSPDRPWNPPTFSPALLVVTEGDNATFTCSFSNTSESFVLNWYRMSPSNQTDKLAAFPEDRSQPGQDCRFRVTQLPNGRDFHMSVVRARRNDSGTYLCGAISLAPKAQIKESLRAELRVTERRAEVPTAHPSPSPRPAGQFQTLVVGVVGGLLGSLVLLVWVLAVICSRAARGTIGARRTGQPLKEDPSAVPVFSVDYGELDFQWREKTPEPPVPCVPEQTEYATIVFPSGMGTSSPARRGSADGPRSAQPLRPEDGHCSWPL
Sequence of Programmed cell death protein 1/Programmed cell death 1 ligand 1 (Q9NZQ7 whole entry): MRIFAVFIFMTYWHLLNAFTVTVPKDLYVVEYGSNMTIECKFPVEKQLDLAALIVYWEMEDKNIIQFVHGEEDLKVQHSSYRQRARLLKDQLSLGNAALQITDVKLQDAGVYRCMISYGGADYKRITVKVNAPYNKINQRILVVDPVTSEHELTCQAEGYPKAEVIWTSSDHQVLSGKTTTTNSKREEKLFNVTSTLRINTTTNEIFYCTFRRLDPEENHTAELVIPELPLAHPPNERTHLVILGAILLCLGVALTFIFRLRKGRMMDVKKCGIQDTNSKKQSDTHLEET

B16-F10 [19] = assay: Antitumor activity against mouse B16-F10 cells implanted in BALB/c mouse assessed as reduction in tumor weight at 50 mg/kg, ip administered once daily for 14 days relative to control; format: functional; design: scale not given: the % may be the effect or the level left; conditions: time 14 day
[20] = Drug concentration in tumor of C57BL/6 mouse implanted with mouse B16-F10 cells at 50 mg/kg, ip measured after 2 hrs by UPLC-MS/MS analysis; format: ADME, organism-based, Neoplasm; conditions: read-out: Ct
[21] = Drug concentration in heart of C57BL/6 mouse implanted with mouse B16-F10 cells at 50 mg/kg, ip measured after 1 hrs by UPLC-MS/MS analysis; format: ADME, organism-based; conditions: read-out: Ct
[22] = Drug concentration in spleen of C57BL/6 mouse implanted with mouse B16-F10 cells at 50 mg/kg, ip measured after 4 hrs by UPLC-MS/MS analysis; format: ADME, organism-based; conditions: read-out: Ct
[23] = Apparent volume of distribution in C57BL/6 mouse at 50 mg/kg, ip measured after 4 hrs by HPLC-MS/MS analysis; format: ADME, organism-based; conditions: in vivo
B16-F10 [24] = assay: Antitumor activity against mouse B16-F10 cells implanted in syngeneic C57BL/6 mouse assessed as inhibition of tumor growth at 50 mg/kg, ip measured after 12 days; format: functional, organism-based; conditions: time 12.0 day
[25] = Toxicity in […] with mouse B16-F10 cells assessed as effect on body weight at 50 mg/kg, ip administered once daily for 14 days; format: organism-based; conditions: in vivo, 336 h, time 14 day
[26] = MRT (0 to infinity) in Sprague-Dawley rat at 20 mg/kg, po measured after 48 hrs by HPLC-MS/MS analysis; format: ADME, organism-based; conditions: in vivo
[27] = Initial drug concentration in C57BL/6 mouse at 50 mg/kg, ip measured after 4 hrs by HPLC-MS/MS analysis; format: ADME, organism-based; conditions: in vivo
[28] = AUC (0 to t) in Sprague-Dawley rat at 1 mg/kg, iv administered as single dose and measured after 48 hrs by HPLC-MS/MS analysis; format: ADME, organism-based; design: dose 1 mg/kg, time 48 hrs, route iv; conditions: in vivo
[29] = molecular target: Programmed cell death 1 ligand 1 (Mus musculus, UniProt Q9EP73); assay: Binding affinity to mouse PD-L1 assessed as dissociation constant by SPR analysis
Sequence of Programmed cell death 1 ligand 1 (Q9EP73 whole entry): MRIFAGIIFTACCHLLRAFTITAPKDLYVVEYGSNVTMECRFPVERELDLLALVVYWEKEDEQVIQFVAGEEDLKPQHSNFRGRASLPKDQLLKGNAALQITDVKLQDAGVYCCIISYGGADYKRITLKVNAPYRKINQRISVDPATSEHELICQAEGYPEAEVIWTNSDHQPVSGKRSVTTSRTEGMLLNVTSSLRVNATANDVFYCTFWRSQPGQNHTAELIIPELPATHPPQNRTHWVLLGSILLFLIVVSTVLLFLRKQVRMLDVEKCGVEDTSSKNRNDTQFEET

[30] = Drug concentration in plasma of C57BL/6 mouse implanted with mouse B16-F10 cells at 50 mg/kg, ip measured after 4 hrs by UPLC-MS/MS analysis; format: ADME, organism-based
[31] = Half-life in Sprague-Dawley rat at 1 mg/kg, iv administered as single dose and measured after 48 hrs by HPLC-MS/MS analysis; format: ADME, organism-based; conditions: in vivo
B16-F10 [32] = assay: Antitumor activity against mouse B16-F10 cells implanted in syngeneic C57BL/6 mouse assessed as decrease in tumor weight at 50 mg/kg, ip measured after 12 days relative to control; format: functional; design: scale not given: the % may be the effect or the level left; conditions: time 12 day
B16-F10 [33] = assay: Antitumor activity against mouse B16-F10 cells implanted in allogenic BALB/c mouse assessed as increase in CXCL10 mRNA level in tumor at 50 mg/kg, ip by qPCR analysis; format: functional, organism-based
[34] = Drug concentration in liver of C57BL/6 mouse implanted with mouse B16-F10 cells at 50 mg/kg, ip measured after 4 hrs by UPLC-MS/MS analysis; format: ADME, organism-based; conditions: read-out: Ct
[35] = Drug concentration in heart of C57BL/6 mouse implanted with mouse B16-F10 cells at 50 mg/kg, ip measured after 0.5 hrs by UPLC-MS/MS analysis; format: ADME, organism-based; conditions: read-out: Ct

For `Cc1c(COc2cc(OCc3cccc(C#N)c3)c(CN3CCCCC3C(=O)NCCNC(=O)CCCC[C@@H]3SC[C@@H]4NC(=O)N[C@@H]43)cc2Cl)cccc1-c1ccccc1` (stereo not given in full), the concentration at 4 h [1] was 94.2 ng/mL, the AUCt [2] was 4673.237 µg/L/h and the concentration at 2 h [3] was 7180 ng/mL. The concentration at 1 h [4] was 219 ng/mL, the concentration at 2 h [5] was 12.4 ng/mL and the clearance [6] was 21.7 mL/min/kg. The concentration at 4 h [7] was 4.6 ng/mL, the concentration at 0.5 h [8] was 1970 ng/mL and the concentration at 2 h [9] was 94.9 ng/mL. The concentration at 1 h [10] was 28.4 ng/mL, the Activity [11] was “Non-Toxic” and the Activity (B16-F10 [12]) was “Active”. The concentration at 4 h [13] was 16.3 ng/mL, the concentration at 1 h [14] was 1980 ng/mL and the C0 at 48 h [15] was 257 ng/mL. For the same compound, the inhibition [16] was 104%, the Tmax [17] was 2.4 h and the EC50 [18] was 920 nM. For the same compound, the Activity (B16-F10 [19]) was 66.1%, the concentration at 2 h [20] was 404 ng/mL and the concentration at 1 h [21] was 15.9 ng/mL. For the same compound, the concentration at 4 h [22] was 7570 ng/mL, the Vz [23] was 39.163 L/kg and the Activity (B16-F10 [24]) was “Active”. The Activity [25] was “Non-Toxic”, the MRT inf [26] was 7.1 h and the C0 [27] was 570.948 ng/mL. It also gave an AUCt [28] of 719 ng·h/mL, a Kd [29] of 218 nM and a concentration at 4 h [30] of 1460 ng/mL. For the same compound, the half-life [31] was 18.1 h, the Activity (B16-F10 [32]) was 39.1% and the Activity (B16-F10 [33]) was “Active”. The concentration at 4 h [34] was 3650 ng/mL and the concentration at 0.5 h [35] was 4.7 ng/mL.
